Experimental data: patent US20060210568A1, “Methods and compositions for cancer treatment” (priority 2003, published 2006)

What was measured:
[1] = tested on: ADRP expression in MCF-7 cells; assay: ADRP expression in MCF-7 cells (RT-PCR); assay type: cell-based, human; details: for increase of ADRP level over the endogenous level: treatment of cells, depends on length of treatment
Source text: Ciglitazone is known to bind and activate the nuclear receptor PPAR gamma, which has been shown in MCF-7 to stimulate expression of beta casein (Mueller et al., 1998).
It is known that estradiol plays a dual role in mammary epithelial cells as a stimulator of proliferation and also as a differentiation factor at different times of the developmental stages of mammary gland development (Kumar et al, 2000).
A specific siRNA against human ADRP mRNA (hADRP-siRNA) was designed using the sequence between +225 to +244 of human ADRP as a target. A control siRNA was designed using a portion of the green fluorescence protein gene. Twenty-one-oligonucleotide RNA for hADRP (rArUrU rGrCrA rGrUrU rGrCrC rArArU rArCrC rUTT and rArGrG rUrArU rUrGrG rCrArA rCrUrG rCrArA rUTT) with 3′dTdT overhangs, and for GFP (rGrGrC rUrArC rGrUrC rCrArG rGrArG rCrGrC rArCrC and rUrGrC rGrCrU rCrCrU rGrGrA rCrGrU rArGrC rCrUrU) were synthesized (Integrated DNA Technologies, Inc., Coralville, Iowa). Transfection of siRNA duplex was performed in MCF-7 cells using LipofectAMINE 2000 reagents as described by the manufacturer (Invitrogen, Carlsbad, Calif.). MCF-7 EV grown to 50% confluency in 6-well plates were transfected with 100 pmole of siRNA per well in serum free-DMEM/F12. After 5 h, the medium was replaced with DMEM/F12 containing 5% FBS. Control MCF-7 cells were treated with GFP siRNA. The cells were then treated with 50 μM (50 micromolars) ciglitazone. After 48 h of incubation, RNA samples were collected by Trizol method to measure human ADRP expression and beta casein expression by RT-PCR as described above.

[2] = tested on: EV MCF-7 cells; assay: proliferation assay, EV MCF-7 control cells; assay type: cell-based, human; details: estradiol 10^−9 M, insulin 10 microgramsg/ml, EGF 25 ng/ml in medium
Description: For proliferation assay, the cells were seeded at a density of 5×10^4 cells in phenol red-free α-MEM (PFME) supplemented with 5% of charcoal extracted fetal bovine serum (CHX-FBS) in 6-well culture plates (Costar). Cells were treated with 1 nM 17β-estradiol alone. Control cells were treated with vehicle alone (0.01% DMSO). Cell numbers were counted by hemacytometer every two days. Medium was changed at day 4. Each time point was performed in triplicate. Specifically, the medium contained estradiol (E2 at 10^−9 M), insulin (10 microgramsg/ml) and epidermal growth factor (EGF at 25 ng/ml).

[3] = tested on: ADRP overexpressing cells (MCF7-C4); assay: proliferation assay, ADRP overexpressing MCF-7 cells; assay type: cell-based, human; details: estradiol 10^−9 M, insulin 10 microgramsg/ml, EGF 25 ng/ml in medium
Description: The vector used to over-express ADRP in MCF-7 cells is the ADRP-pcDNA3 vector described in Gao and Serrero, 1999. The G418 resistance gene was used as selectable marker. MCF-7 cells were transfected with the ADRP-pcDNA3 plasmid, using the lipofectamine method. Specifically, MCF-7 cells (WT) were plated onto 60-mm dish at the concentration of 2×10^5 cell per plate in 5% fetal bovine serum (FBS) in DMEM/F12 (1:1 mixture of Dulbecco's modified Eagle's medium and Ham' nutrient F12 medium) overnight before transfection. Cells were washed once with serum-free DMEM/F12 (without antibiotic). The lipofectamine method was used for the transfection. Specifically, 2 μg mouse ADRP pcDNA3 construct was used. Transfection was carried on according to manufacturer's recommendations, with 15 μl of lipofectamine and 5 hours of incubation. After transfection, the medium was replaced with 5% FBS DMEM/F12 and the cells were incubated overnight. G418 at the concentration of 800 μg/ml was added the day after for selection. Cells were selected with this medium for 3 weeks. Six clones were isolated and subjected to RT-PCR to determine the existence of the transfection construct. For proliferation assay, the cells were seeded at a density of 5×10^4 cells in phenol red-free α-MEM (PFME) supplemented with 5% of charcoal extracted fetal bovine serum (CHX-FBS) in 6-well culture plates (Costar). Cells were treated with 1 nM 17β-estradiol alone. Control cells were treated with vehicle alone (0.01% DMSO). Cell numbers were counted by hemacytometer every two days. Medium was changed at day 4. Each time point was performed in triplicate. Specifically, the medium contained estradiol (E2 at 10^−9 M), insulin (10 microgramsg/ml) and epidermal growth factor (EGF at 25 ng/ml).

[4] = tested on: ADRP expression in adipocytes; details: cited from earlier work

| Molecule | increase of ADRP level over the endogenous level [1] | ADRP expression ([1]; MCF-7 cells, FIG. 7) | proliferation of EV MCF-7 cells (control) [2] | proliferation of ADRP overexpressing cells [3] | ADRP expression in adipocytes [4] |
| --- | --- | --- | --- | --- | --- |
| CC1(COc2ccc(CC3SC(=O)NC3=O)cc2)CCCCC1 (centres unmarked) [ciglitazone] | over 10 fold |  |  |  |  |
| C[C@]12CC[C@@H]3c4ccc(O)cc4CC[C@H]3[C@@H]1CC[C@@H]2O [estradiol, 17β-estradiol, reference compound] | 2-3 fold | stimulates ADRP expression | stimulated the proliferation | no effect |  |
| CC(C)Cc1ccc(C(C)C(=O)O)cc1 (centres unmarked) [ibuprofen] |  |  |  |  | stimulated |
| COc1ccc2c(c1)c(CC(=O)O)c(C)n2C(=O)c1ccc(Cl)cc1 [indomethacin] |  |  |  |  | stimulated |
| epidermal growth factor: growth factor known to stimulate the proliferation of mammary epithelial cells |  |  | stimulated the proliferation | no effect |  |
| insulin: hormone known to stimulate the proliferation of mammary epithelial cells |  |  | stimulated the proliferation | no effect |  |
